Results as given in ChEMBL document CHEMBL1201862, “PubChem BioAssay data set” (2004).
The source made the active and inactive calls.

Legend:
[1] = target: T1, V-type proton ATPase subunit c' (Saccharomyces cerevisiae S288c, UniProt P32842); assay: Dose Response with BCECF Assay for V-ATPase inhibitors that increase vacuolar pH, Powder Set 1.; type: functional; settings: read-out: EC50_MICROM
[2] = target: T1, V-type proton ATPase subunit c'; assay: Dose Response of Small Molecules that Regulate V-ATPase Proton Transport in Yeast using pHLuorin, Powder Set1.; type: functional; settings: read-out: EC50_MICROM
[3] = test system: MDCK; assay: MDCK cell cytotoxicity, dose response, cytotoxicity control (AID 540296); type: functional; settings: Canis lupus familiaris
[4] = test system: MDCK; assay: antiviral activity against H1N1 influenza, dose response, cell-based, strain KY180 (AID 540254); type: functional; settings: Canis lupus familiaris
[5] = target: CAAX prenyl protease 2 (Homo sapiens, UniProt Q9Y256); assay: human Rce1 protease inhibitors, dose response, biochemical, yeast membranes, quenched-peptide fluorescence, cherry-pick (AID 588849)
[6] = target: Cytochrome P450 3A4 (Homo sapiens, UniProt P08684);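 further: CYP3A4 tested as one member of a cytochrome P450 panel screen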
[7] = target: T2, Zinc finger protein mex-5 (Caenorhabditis elegans, UniProt Q9XUB2); assay: MEX-5/TCR-2 RNA interaction inhibitors, dose response, biochemical, C. elegans, fluorescence polarization (AID 1960)
T2 sequence (Q9XUB2 whole entry): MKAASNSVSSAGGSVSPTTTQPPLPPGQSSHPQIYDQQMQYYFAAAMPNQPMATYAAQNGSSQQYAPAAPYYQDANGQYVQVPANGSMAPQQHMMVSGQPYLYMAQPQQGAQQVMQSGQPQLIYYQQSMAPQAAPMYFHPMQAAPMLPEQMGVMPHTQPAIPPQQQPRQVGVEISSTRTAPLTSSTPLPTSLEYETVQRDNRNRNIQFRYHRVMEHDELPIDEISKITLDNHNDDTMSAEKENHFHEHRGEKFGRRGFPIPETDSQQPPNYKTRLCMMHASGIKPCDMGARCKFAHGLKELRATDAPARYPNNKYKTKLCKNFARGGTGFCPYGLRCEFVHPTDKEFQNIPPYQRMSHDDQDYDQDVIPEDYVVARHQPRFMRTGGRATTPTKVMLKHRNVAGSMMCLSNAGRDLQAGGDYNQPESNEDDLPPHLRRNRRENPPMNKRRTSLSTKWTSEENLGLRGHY

[8] = target: Cytochrome P450 2C9 (Homo sapiens, UniProt P11712)
[9] = target: T3, RNA-binding protein pos-1 (Caenorhabditis elegans, UniProt G5EF15); assay: inhibitors of POS-1/mex-3 RNA binding, dose response, biochemical, fluorescence polarization (AID 1964);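 further: purified POS-1 fused to maltose binding protein made in E. coli; potency of compounds blocking POS-1 binding to fluorescent RNA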
T3 sequence (G5EF15 whole entry): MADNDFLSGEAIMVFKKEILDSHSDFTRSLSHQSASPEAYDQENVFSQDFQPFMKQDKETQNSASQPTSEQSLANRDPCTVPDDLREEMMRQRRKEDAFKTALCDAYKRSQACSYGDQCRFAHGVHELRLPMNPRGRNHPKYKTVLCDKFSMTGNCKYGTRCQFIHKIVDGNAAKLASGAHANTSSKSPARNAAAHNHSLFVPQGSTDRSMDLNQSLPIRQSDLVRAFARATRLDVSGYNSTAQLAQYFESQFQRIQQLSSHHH

[10] = target: Corticotropin-releasing factor receptor 2/Corticotropin-releasing factor-binding protein (Homo sapiens, UniProt Q13324+P24387); assay: activators of CRF receptor 2 with binding protein – uHTS hits, confirmation (AID 602473); type: functional; settings: read-out: EC50_Mean
[11] = target: 72 kDa type IV collagenase (Homo sapiens, UniProt P08253); assay: Dose Response validation of uHTS RPN11 inhibitor hits using a MMP-2 Fluorescence assay.; type: functional
[12] = target: Prothrombin (Bos taurus, UniProt P00735); assay: thrombin inhibition, dose response, biochemical, fluorescence polarization, uHTS hits (AID 602369); type: functional
[13] = target: 26S proteasome non-ATPase regulatory subunit 14 (Homo sapiens, UniProt O00487); assay: inhibition of proteasome subunit RPN11 – biochemical, fluorescence polarization, uHTS hits, confirmation (AID 602368); type: functional
[14] = target: Phospholipase D2 (Homo sapiens, UniProt O14939); assay: PLD2 inhibitor potency in cells, dose response (AID 602147); type: functional;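 further: cellular assay in HEK293 cells overexpressing GFP-tagged PLD2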
[15] = target: Phospholipase D1 (Homo sapiens, UniProt Q13393); assay: PLD1 inhibitor potency in cells, dose response (AID 602151); type: functional;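 further: cellular PLD1 assay in Calu-1 cells stimulated with PMA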
[16] = target: Dual specificity protein phosphatase 3 (Homo sapiens, UniProt P51452); assay: SAR VHR1 Fluorescent Assay for In Vitro dose response studies Set 3. [Related pubchem assays (depositor defined):AID1654, AID1661, AID1878]; type: functional
[17] = target: Aurora kinase B (Homo sapiens, UniProt Q96GD4); type: functional
[18] = target: Calcium/calmodulin-dependent protein kinase type II subunit gamma (Homo sapiens, UniProt Q13555); type: functional
[19] = target: Calcium/calmodulin-dependent protein kinase type II subunit beta (Homo sapiens, UniProt Q13554); type: functional
[20] = target: Protein kinase C delta type (Homo sapiens, UniProt Q05655); type: functional
[21] = control 3'UTR Renilla luciferase suppression, dose response, counter-screen for Shn3 inhibitor project, cell-based, Clone20-Shn3RL, cherry-picked (AID 624133); type: functional
[22] = Luminescence Cell-Based Dose Retest to Confirm Inhibitors of Cancer Stem Cells. [Related pubchem assays (depositor defined):AID2717, AID2721]; type: functional; settings: Homo sapiens
[23] = cytotoxicity toward NIH3T3 fibroblasts, dose response, counter-screen, cell-based, ATP luminescence, mouse fibroblasts (AID 2010); type: functional;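 further: cells exposed to compound for about 90 hours before reading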
[24] = test system: A-375; assay: MITF: Counter assay: A375 proliferation Measured in Cell-Based System Using Plate Reader - 2084-03_Inhibitor_Dose_DryPowder_Activity. [Related pubchem assays (depositor defined):AID488944]; type: functional; settings: Homo sapiens
[25] = test system: A-375; assay: A375 melanoma cell viability reduction, dose response, counter-screen for MITF modulator project, cherry-pick samples, set 2 (AID 540335); type: functional, cell-based; settings: Homo sapiens
[26] = Shn3 3'UTR reporter inhibitors, dose response, cell-based, Clone20 osteoblasts, firefly luciferase, cherry-picked (AID 624132); type: functional;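 further: firefly luciferase luminescence from reporter carrying the Shn3 3'UTR in osteoblasts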
[27] = target: T4, Microphthalmia-associated transcription factor (Homo sapiens, UniProt O75030); assay: TRPM1 promoter luciferase signal decrease, dose response, MITF inhibitor project, cell-based, SK-MEL-5, cherry-picked, set 3 (AID 493073); type: functional
T4 sequence (O75030 whole entry): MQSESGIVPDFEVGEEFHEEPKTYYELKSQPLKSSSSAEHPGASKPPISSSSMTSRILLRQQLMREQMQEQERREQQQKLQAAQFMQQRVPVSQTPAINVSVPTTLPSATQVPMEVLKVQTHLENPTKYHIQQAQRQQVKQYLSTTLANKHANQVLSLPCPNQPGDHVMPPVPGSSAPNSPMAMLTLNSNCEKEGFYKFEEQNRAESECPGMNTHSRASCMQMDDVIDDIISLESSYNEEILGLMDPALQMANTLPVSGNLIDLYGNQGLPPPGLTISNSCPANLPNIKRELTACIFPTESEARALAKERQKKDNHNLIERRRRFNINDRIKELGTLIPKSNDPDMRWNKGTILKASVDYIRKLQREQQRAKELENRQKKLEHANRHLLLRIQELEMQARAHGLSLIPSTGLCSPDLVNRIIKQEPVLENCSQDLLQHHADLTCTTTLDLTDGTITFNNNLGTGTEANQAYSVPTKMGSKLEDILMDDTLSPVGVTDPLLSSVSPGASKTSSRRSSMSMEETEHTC

[28] = HepG2 cell cytotoxicity, dose response, cytotoxicity control for Shn3 inhibitor project, CellTiter-Glo, cherry-picked (AID 624134); type: functional, cell-based
[29] = inhibitors of intracellular T. cruzi replication, confirmation, NIH3T3 host cells, beta-gal luminescence (AID 2044); type: functional, cell-based;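 further: intracellular parasites grown in NIH/3T3 mouse fibroblasts as host cells; luminescent beta-galactosidase reporter signal from transgenic T. cruzi replicating inside host cells; inhibitors lower the luminescence signal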
[30] = Luminescence Cell-Based Dose Confirmation HTS to Identify Inhibitors of Platelet Dense Granule Release. [Related pubchem assays: 1663 (Primary HTS), 1678 (Summary of Project)]; type: functional
[31] = inhibitors of SFLLRN-triggered platelet P-selectin exposure, dose response, cell-based, fluorescence, flow cytometry, human platelets (AID 2511); type: functional
[32] = Luminescence Cell-Based Dose Response Follow up to Identify Inhibitors of Platelet Dense Granule Release. [Related pubchem assays (depositor defined):AID1663, AID1678, AID1889, AID2519]; type: functional
[33] = SFLLRN-induced P-Selectin Platelet Surface Expression Measured in Cell-Based System Using Flow Cytometry - 2016-03_Inhibitor_Dose_DryPowder_Activity_Set3. [Related pubchem assays (depositor defined):AID1678]; type: functional
[34] = blockers of SFLLRN-triggered platelet ATP secretion – cell-based, human platelets, luminescence, dry powder, dose response (AID 493100); type: functional
[35] = target: Luciferin 4-monooxygenase (Photinus pyralis, UniProt P08659); assay: firefly luciferase enzyme inhibitors, dose response, biochemical, luminescence (AID 1891)
[36] = target: Heat shock protein HSP 90-alpha (Homo sapiens, UniProt P07900); type: functional, organism-based
[37] = cytotoxicity in HEK-293T cells, dose response, cytotoxicity control for TCR NF-kB inhibitor project, luminescence, T-cell screen hits (AID 489026); type: functional, cell-based;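 further: cells exposed to compound about 14 hours before the viability readout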
[38] = target: T5, Heat shock factor protein 1 (Mus musculus, UniProt P38532); assay: HSF1 potentiators in luciferase reporter cells, confirmation, cell-based, NIH3T3, luminescence, dose retest (AID 435004); type: functional;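 further: stress induced by proteasome inhibitor MG132 added 30 min after compound; luciferase reporter driven by HSF1 response element in NIH3T3 cells; actives raise luminescence as potentiators of the MG132 stress response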
T5 sequence (P38532 whole entry): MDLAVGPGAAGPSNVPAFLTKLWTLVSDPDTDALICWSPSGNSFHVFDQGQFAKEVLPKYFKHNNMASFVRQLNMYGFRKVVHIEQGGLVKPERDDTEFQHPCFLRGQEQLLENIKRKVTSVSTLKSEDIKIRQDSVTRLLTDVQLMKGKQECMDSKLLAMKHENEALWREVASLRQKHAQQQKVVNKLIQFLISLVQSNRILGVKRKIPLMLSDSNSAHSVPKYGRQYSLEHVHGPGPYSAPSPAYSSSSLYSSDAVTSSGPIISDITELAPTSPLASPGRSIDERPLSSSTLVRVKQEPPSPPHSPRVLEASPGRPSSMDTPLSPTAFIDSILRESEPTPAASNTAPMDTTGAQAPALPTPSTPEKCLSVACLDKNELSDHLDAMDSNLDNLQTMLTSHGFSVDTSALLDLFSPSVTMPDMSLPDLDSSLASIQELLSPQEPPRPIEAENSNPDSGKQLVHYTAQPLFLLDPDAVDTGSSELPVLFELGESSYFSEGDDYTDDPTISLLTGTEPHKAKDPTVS

[39] = test system: INS1; assay: beta cell apoptosis inhibitors, cytokine rescue, dose response, luminescence, retest (AID 449756); type: functional, cell-based; settings: Rattus norvegicus;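 further: cell death triggered by IL-1 beta plus TNF-alpha plus IFN-gamma mixture; protective hits raise ATP signal compared with cytokine alone wells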

T1 sequence (P32842 whole entry): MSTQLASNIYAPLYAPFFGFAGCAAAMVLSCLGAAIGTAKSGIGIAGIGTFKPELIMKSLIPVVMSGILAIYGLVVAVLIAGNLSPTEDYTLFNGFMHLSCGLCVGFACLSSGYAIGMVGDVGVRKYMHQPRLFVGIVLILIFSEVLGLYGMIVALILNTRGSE
Chain of Aurora kinase B (Q96GD4 whole entry): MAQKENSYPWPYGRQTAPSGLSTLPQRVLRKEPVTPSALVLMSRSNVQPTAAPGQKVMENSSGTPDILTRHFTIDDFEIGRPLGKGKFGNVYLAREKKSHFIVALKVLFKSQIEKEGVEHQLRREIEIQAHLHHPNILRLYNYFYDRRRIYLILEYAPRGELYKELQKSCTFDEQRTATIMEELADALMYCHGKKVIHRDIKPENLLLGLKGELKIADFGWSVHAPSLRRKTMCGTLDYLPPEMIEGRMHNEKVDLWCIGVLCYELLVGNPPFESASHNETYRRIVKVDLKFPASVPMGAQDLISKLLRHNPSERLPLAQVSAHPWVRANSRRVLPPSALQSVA
Chain of Phospholipase D1 (Q13393 whole entry): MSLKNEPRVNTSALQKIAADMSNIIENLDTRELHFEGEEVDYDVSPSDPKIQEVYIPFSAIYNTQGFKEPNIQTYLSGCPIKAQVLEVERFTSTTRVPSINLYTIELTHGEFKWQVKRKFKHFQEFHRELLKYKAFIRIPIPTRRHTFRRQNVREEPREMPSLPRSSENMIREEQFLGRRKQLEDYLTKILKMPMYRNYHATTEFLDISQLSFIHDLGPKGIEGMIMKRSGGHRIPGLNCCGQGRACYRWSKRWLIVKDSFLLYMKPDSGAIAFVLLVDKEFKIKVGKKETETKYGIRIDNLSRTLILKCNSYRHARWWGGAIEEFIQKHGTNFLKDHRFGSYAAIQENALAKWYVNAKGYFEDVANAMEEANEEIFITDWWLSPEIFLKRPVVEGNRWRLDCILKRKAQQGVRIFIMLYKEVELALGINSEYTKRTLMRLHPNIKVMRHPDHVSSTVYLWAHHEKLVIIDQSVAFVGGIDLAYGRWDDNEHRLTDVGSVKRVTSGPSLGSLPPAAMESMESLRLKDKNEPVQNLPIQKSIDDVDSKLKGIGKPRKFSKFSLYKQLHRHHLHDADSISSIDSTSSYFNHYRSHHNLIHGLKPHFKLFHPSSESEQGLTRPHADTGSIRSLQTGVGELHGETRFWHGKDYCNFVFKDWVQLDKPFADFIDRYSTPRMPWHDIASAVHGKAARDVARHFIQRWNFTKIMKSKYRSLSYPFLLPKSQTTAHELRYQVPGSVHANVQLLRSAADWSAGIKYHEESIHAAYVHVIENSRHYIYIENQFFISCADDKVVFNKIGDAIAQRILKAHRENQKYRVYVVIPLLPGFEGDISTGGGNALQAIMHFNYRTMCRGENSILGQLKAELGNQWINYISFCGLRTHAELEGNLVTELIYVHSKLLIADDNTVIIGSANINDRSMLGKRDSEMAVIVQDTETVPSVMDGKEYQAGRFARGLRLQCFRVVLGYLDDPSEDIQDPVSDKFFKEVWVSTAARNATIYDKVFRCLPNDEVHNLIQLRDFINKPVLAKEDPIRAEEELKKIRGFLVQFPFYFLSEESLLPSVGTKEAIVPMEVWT
Chain of Cytochrome P450 3A4 (P08684 whole entry): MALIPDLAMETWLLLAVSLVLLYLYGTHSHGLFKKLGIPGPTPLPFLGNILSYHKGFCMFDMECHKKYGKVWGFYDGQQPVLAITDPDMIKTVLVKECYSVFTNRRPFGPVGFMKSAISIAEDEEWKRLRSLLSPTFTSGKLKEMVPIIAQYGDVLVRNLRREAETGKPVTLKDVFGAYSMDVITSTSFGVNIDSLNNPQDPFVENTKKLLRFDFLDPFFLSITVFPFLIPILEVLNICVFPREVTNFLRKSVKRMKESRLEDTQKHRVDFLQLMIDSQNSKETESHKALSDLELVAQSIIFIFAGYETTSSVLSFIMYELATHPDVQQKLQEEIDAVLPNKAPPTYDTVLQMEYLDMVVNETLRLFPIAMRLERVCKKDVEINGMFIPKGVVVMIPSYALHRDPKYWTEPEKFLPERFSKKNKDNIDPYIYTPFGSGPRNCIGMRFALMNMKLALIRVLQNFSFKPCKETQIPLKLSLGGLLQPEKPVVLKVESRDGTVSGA
Chain of Cytochrome P450 2C9 (P11712 whole entry, the tested form may be a part): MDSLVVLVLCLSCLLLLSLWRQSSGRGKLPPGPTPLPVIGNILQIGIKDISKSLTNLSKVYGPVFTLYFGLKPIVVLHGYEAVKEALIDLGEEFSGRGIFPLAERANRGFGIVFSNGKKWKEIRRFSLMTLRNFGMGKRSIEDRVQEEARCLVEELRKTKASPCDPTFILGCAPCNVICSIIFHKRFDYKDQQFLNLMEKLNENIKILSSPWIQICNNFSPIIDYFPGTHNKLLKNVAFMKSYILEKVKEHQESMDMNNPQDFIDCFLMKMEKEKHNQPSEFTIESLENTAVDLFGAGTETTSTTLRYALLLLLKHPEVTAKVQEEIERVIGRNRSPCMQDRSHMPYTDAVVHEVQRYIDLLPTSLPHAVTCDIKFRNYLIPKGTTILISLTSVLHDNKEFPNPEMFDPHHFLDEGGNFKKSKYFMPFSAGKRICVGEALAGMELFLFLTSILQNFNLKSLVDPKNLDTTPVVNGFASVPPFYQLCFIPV
Chain of CAAX prenyl protease 2 (Q9Y256 whole entry): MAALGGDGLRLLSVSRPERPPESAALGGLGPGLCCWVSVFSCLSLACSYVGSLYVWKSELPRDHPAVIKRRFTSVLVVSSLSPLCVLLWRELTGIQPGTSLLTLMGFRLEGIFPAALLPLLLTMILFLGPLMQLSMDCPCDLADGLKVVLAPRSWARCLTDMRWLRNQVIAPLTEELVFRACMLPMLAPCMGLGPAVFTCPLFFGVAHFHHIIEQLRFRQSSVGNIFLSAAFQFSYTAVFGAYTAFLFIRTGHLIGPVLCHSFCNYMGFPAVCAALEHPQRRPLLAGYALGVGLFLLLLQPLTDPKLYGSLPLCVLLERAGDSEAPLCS
Chain of Calcium/calmodulin-dependent protein kinase type II subunit beta (Q13554 whole entry): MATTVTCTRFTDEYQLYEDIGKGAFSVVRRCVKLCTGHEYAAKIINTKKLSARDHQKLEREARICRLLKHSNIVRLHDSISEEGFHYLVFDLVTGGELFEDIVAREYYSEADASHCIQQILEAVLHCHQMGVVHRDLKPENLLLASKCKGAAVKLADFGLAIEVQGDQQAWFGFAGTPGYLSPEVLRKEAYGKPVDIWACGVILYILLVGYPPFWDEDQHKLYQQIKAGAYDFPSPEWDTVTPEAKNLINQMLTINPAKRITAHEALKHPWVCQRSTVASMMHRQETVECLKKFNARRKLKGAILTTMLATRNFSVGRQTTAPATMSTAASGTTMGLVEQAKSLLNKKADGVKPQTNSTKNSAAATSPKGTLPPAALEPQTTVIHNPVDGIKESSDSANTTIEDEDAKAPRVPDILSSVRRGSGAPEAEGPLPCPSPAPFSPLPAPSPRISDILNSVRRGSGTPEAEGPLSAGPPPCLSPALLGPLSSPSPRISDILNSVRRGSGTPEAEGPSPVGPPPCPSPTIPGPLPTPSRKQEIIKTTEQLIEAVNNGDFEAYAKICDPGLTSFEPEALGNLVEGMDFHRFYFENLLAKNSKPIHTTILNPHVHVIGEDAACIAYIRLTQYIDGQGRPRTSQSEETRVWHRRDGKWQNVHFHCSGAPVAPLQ
Chain of Corticotropin-releasing factor receptor 2/Corticotropin-releasing factor-binding protein (Q13324 whole entry): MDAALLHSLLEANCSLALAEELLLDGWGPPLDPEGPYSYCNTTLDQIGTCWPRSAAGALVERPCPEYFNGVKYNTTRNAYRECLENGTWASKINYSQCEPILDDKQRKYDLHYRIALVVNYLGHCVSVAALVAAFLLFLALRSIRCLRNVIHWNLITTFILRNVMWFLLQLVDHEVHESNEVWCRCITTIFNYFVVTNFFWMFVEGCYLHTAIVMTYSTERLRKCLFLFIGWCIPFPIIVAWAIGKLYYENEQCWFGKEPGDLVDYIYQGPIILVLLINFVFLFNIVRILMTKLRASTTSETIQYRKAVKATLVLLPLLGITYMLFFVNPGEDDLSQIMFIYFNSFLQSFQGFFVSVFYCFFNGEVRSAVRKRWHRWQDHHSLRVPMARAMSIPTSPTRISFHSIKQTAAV
Chain of Corticotropin-releasing factor receptor 2/Corticotropin-releasing factor-binding protein (P24387 whole entry): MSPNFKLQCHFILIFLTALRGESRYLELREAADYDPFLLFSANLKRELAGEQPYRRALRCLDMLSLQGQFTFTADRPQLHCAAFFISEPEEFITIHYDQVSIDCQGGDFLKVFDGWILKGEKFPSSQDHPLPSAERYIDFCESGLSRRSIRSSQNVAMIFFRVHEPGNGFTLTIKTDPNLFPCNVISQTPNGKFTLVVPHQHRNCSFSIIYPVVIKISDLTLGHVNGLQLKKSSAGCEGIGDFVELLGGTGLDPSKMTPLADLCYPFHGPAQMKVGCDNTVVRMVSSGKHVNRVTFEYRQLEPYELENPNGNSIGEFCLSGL
Chain of Protein kinase C delta type (Q05655 whole entry): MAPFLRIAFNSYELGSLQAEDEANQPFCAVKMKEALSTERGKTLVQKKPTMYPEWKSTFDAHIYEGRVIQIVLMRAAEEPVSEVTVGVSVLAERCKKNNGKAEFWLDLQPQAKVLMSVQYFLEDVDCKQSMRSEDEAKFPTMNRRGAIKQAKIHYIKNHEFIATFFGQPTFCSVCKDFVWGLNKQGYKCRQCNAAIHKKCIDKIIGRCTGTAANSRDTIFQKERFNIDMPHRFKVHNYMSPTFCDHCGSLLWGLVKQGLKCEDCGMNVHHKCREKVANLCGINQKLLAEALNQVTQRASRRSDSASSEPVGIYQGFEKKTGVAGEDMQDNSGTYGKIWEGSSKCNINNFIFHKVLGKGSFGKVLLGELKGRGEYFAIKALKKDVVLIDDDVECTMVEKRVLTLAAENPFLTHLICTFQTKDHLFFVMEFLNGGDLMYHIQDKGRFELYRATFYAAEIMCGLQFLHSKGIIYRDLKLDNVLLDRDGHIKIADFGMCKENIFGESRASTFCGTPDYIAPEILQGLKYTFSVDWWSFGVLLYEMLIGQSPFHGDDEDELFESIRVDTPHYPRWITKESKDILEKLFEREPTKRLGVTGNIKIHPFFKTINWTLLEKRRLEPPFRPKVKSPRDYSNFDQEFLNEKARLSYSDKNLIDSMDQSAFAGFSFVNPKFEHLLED

COc1ccccc1N1CCN(C(=O)c2ccc([N+](=O)[O-])o2)CC1
EC50 [1]: 24.3 µM (active)
EC50 [2]: 40.5 µM (active)

CC(c1ccccn1)N(CCN(C)C)C(S)=Nc1cccc(F)c1 (centres undefined)
CC50 [3]: > 40 µM (active)
IC50 [4]: 64.7 µM (active)

Oc1ncccc1-c1nc2ccccc2n1Cc1cccc(Cl)c1
AC50 [5]: 5.23 µM (active)

CCCCC1(C)OC(=O)C(=Cc2ccc(N(CC)CC)cc2)C(=O)O1 (centres undefined)
AC50 [6]: 0.126 µM (inconclusive)
EC50 [7]: > 300 µM (not active)
AC50 [8]: inconclusive
EC50 [9]: > 300 µM (not active)
EC50 [10]: 7.59 µM (active)

O=C1c2cccc3cccc(c23)C(=O)N1c1ccc2ncccc2c1
IC50 [11]: 23 µM (active)
IC50 [12]: 82.1 µM (active)
IC50 [13]: 23.9 µM (active)

C[C@@H](CN1CCC(n2c(=O)[nH]c3ccc(F)cc32)CC1)NC(=O)c1ccc(F)cc1
IC50 [14]: 0.3 µM (active)
IC50 [15]: 0.002 µM (active)

Cc1c(NC(=O)c2cc(-n3cnnc3)ccc2Cl)cccc1-c1nc2ccccc2s1
IC50 [16]: 18.3 µM (active)

Cc1cc(C(=O)NCCOCCOCCN)ccc1-c1cccc2c(CCCOc3cccc4ccccc34)c(C(=O)O)[nH]c12
Ki [17]: 3.98 µM (active)
Ki [18]: 3.98 µM (active)
Ki [19]: 5.01 µM (active)
Ki [20]: 2.51 µM (active)

Cc1ccccc1C(=O)N1CCN(c2ccc(NC(=O)c3ccc([N+](=O)[O-])o3)cc2)CC1
AC50 [21]: 9.76 µM (active)
AC50 [22]: 1.8 µM (active)
EC50 [23]: 3.84 µM (active)
AC50 [24]: > 35 µM (active)
AC50 [25]: > 35 µM (active)
AC50 [26]: 0.864 µM (active)
AC50 [27]: 6.2 µM (active)
AC50 [28]: 20.5 µM (active)
EC50 [29]: 3.14 µM (active)

CCC(=O)Nc1cccc(NC(=O)c2ccccc2Br)c1
EC50 [30]: 4.32 µM (active)
EC50 [31]: < 1 µM (active)
EC50 [32]: 14 µM (active)
AC50 [33]: < 3.12 µM (active)
AC50 [34]: 21.2 µM (active)
EC50 [35]: > 112 µM (not active)

Cc1cccc(N=Nc2ccc(O)c3ncccc23)c1
AC50 [36]: 3.91 µM (active)
IC50 [37]: > 80 µM (inactive)
EC50 [38]: 4.58 µM (active)
AC50 [39]: 1.78 µM (active)
